The values that follow come from patent US20210315831A1, “PREPARATION OF NANOSUSPENSION COMPRISING NANOCRYSTALS OF ACTIVE PHARMACEUTICAL INGREDIENTS WITH LITTLE OR NO STABILIZING AGENTS” (CENTRE NATIONAL DE LA RECHERCHE SCIENTIFIQUE, priority 2018, published 2021).

One data set is described as follows: in vivo. The conditions noted are these: female, BALB/c, mouse, plasma, iv, 10 mg/kg.
A further data set relates to CT26 colon cancer cells. Nature of the data set: In vitro cytotoxicity, MTT test, CT26 cells. The note with it: Mus musculus. Background: Tetrazolium assays rely on reduction of a dye to a coloured formazan, in cell work by metabolically active cells.
The test system of a further data set is white blood cells (WBC). Kind of data set: Hematological toxicity, white blood cell count in mice. The data set is classed as in vivo, BALB/c female mice. The procedure: The drug schedule protocol was equivalent to the anticancer efficacy study. Blood samples were taken in the mice tail vein at 1, 12, 15, 17 and 22 days and transferred to Eppendorf tube containing 2 μL of EDTA for white blood cells (WBC) numbering using a MS9-5 (MS Pharmaceuticals, France).

The subject of data set [1] is Murine carcinoma tumors CT26. Nature of the data set: Anticancer efficacy on subcutaneous CT26 tumors in mice. The conditions noted are these: 10 mg/kg ETO d8, d9 and d11, d12.
Data set [2] is described as follows: Plasma pharmacokinetic in mice after intravenous injection. The note with it: i.v. 10 mg/kg ETO.
Data set [3] relates to LLC1 Lewis lung cancer cells. Kind of data set: cells. The note with it: Mus musculus.

Where two headings read alike, the source gives them in different places.

The AUC(0-t) is the area under the concentration-time curve up to a stated or last time point. One may read the MRT as the average time that molecules of a dose stay in the body. By half-life is commonly meant how long it takes for the measured level to halve. Low readings indicate fast loss, high ones slow loss.

In “in vivo”, `COc1cc([C@@H]2c3cc4c(cc3[C@@H](O[C@@H]3O[C@@H]5CO[C@@H](C)O[C@H]5[C@H](O)[C@H]3O)[C@H]3COC(=O)[C@H]23)OCO4)cc(OC)c1O` [Free Etoposide, etoposide] gave an area under the curve AUC(0-t) of 6300 ng·h/mL. The same compound showed a mean residence time (MRT) in the data set “in vivo” of 1.89 min. The compound also returned a half-life in “in vivo” of 4.89 min. In addition, the IC50 in the data set with CT26 colon cancer cells (CT26, 48 h, read-out: CT26-IC50 (48 h) (μM)) was 11.3 ± 1.4 µM; in the data set with CT26 colon cancer cells (CT26, 48 h, read-out: IC 50 (48 h) (μg/mL)), 8.99 µg/mL; in the data set on CT26 colon cancer cells (CT26, 72 h, read-out: CT26-IC50 (72 h) (μM)), 5.6 ± 0.1 µM; in the data set with CT26 colon cancer cells (CT26, 72 h, read-out: IC 50 (72 h) (μg/mL)) it was 5.17 µg/mL; in data set [3] (LLC1, 48 h, read-out: LLC1-IC 50 (48 h) (μM)) it was 1.66 ± 0.13 µM; in data set [3] (LLC1, 72 h, read-out: LLC1-IC 50 (72 h) (μM)) it was 1.05 ± 0.02 µM. Also, in the data set on white blood cells (WBC) (day 1, taken as control before treatment), the “White blood cell count (10^9 cells/L), Days 1” value is recorded as 8.9 ± 2.3 10^9 cells/L. In addition, the “White blood cell count (10^9 cells/L), Days 12” value in the data set with white blood cells (WBC) (day 12, last day of treatment, i.v. 10 mg/kg) is recorded as 6.5 ± 4.4 10^9 cells/L. In addition, the “White blood cell count (10^9 cells/L), Days 15” value in the data set with white blood cells (WBC) (day 15, i.v. 10 mg/kg) is 11.6 ± 0.9 10^9 cells/L. The “White blood cell count (10^9 cells/L), Days 17” value with white blood cells (WBC) (day 17, i.v. 10 mg/kg) is recorded as 10.4 ± 1.3 10^9 cells/L. For the same compound, the “White blood cell count (10^9 cells/L), Days 22” value in the data set with white blood cells (WBC) (day 22, i.v. 10 mg/kg) is 11.3 ± 3.4 10^9 cells/L. Further, the “Time for median tumor to reach 50 mm^3” value in data set [1] is reported as 9.5. Moreover, the “mice weight loss throughout the investigation” value in data set [1] is recorded as “a decrease is observed”. In addition, in data set [1] (second value of the cell, d17), the “Mean body weight change, d17” value is given as “+3.85 d17”. In addition, the “Mean body weight change (day of nadir)” value in data set [1] (value at nadir) is given as −3.40. Further, in data set [1] (day 12), the “Median Tumor Volume (mm^3 on day 12)” value came to 69 mm^3. Besides, in data set [2], the “Maximum amount in total mice plasma (μg/mL) ± SD (n = 6)” value amounted to 37.62 ± 0.85 µg/mL.
